Measurements as given in ChEMBL document CHEMBL1125229 (J Med Chem, 1991).

Target: Angiotensin-converting enzyme (Homo sapiens, UniProt P12821)
Assay: Compound was tested for its inhibitory potency against angiotensin I converting enzyme.

Chain of Angiotensin-converting enzyme (P12821 whole entry): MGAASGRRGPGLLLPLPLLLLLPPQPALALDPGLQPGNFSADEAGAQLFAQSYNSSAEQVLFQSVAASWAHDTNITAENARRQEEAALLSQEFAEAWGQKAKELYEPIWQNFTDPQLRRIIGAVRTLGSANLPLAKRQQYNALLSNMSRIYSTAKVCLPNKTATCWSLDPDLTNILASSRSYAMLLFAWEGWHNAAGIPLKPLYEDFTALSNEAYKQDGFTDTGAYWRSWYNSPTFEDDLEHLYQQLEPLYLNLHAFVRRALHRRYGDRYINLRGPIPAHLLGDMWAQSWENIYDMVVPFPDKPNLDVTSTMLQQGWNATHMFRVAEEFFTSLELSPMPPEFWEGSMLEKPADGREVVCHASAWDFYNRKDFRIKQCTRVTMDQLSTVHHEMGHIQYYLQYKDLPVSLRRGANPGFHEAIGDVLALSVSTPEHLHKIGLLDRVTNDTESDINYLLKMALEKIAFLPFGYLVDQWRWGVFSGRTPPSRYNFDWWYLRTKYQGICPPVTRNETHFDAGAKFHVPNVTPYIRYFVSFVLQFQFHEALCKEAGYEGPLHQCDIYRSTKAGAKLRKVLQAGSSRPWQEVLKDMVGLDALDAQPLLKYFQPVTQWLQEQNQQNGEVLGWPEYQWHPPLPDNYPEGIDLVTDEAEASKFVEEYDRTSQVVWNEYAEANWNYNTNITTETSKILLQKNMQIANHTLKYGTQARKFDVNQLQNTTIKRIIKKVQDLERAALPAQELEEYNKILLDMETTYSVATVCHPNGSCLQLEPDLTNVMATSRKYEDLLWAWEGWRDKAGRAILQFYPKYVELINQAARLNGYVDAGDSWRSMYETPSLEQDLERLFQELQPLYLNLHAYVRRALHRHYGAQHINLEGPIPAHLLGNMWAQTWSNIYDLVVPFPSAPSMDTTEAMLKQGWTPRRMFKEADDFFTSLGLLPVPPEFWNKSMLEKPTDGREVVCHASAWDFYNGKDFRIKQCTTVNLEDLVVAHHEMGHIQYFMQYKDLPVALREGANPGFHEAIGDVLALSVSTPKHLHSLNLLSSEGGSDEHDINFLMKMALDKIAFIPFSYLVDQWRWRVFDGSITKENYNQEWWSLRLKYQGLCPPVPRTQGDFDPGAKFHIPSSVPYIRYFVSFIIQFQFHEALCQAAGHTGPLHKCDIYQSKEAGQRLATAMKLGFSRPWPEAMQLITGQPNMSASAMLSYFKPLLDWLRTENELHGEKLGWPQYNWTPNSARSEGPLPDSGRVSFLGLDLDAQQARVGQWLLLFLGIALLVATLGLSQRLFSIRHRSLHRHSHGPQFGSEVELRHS

- Ki: 1.2 nM
SMILES: O=C(O)C(CCc1ccccc1)NC1Cc2ccccc2[C@H]2CCC[C@@H](C(=O)O)N2C1=O (stereo partly specified)
